The text below walks through data of patent publication US8067424B2, “Selective inhibitors for cyclin-dependent kinases” (Emory University, priority 2007, dated 2011).

Common to all, as to format: biochemical
The target in one assay is CAMKKβ (Homo sapiens, UniProt Q96RR4). The experiment in a line: Kinase screen: CAMKKb assay. The protocol: (§1) Generally, the same procedure was used for all assays. Since the total assay volume was 25.5 microliters, 0.5 microliters of inhibitors at 51× assay concentration were added to the plates before any other addition.
(§2) The basic procedure was to add 0.5 microliters inhibitor/control in DMSO to plate. Fifteen microliters of enzyme/substrate/buffer mix were added and incubated for 5 min. Ten microliters MgATP at the relevant concentration were added and incubated for 30 min. The assay was stopped by adding 5 microliters of 3% orthophosphoric acid. The assay was transferred to a p81 filter plate and read in a scintillation counter of 30 sec/well. Note that this assay procedure was not followed for MKK1, which instead involved a two-step assay, and PKC alpha, which required the addition of lipid vesicles.
(500-1000 cpm/pmole) and incubated for 30 mins at room temperature. […] Assays were harvested onto P81 Unifilter plates using a wash buffer of 50 mM orthophosphoric acid.

A further assay deals with CAMK1 (Homo sapiens, UniProt Q14012). The assay is described as follows: Kinase screen: CAMK-1 assay. The procedure:
as §1, §2
CAMK-1 assay: 5-20 mU of CAMK-1 (diluted in 50 mM Tris (pH 7.5), 0.1 mM EGTA, 1 mg/ml BSA, 0.1%, b-Mercaptoethanol) was assayed against substrate peptide ([…]) (SEQ ID NO: 22) in a final volume of 25.5 μl containing 50 mM Tris (pH 7.5), 0.1 mM EGTA, 0.5 mM CaCl2, 0.3 μM calmodulin, 0.1%, b-Mercaptoethanol, 300 μM substrate peptide, 10 mM magnesium acetate and 0.05 mM [33P-g-ATP] (500-1000 cpm/pmole) and incubated for 30 mins at room temperature. Assays were stopped by addition of 5 μl of 0.5M (3%) orthophosphoric acid. Assays were harvested onto P81 Unifilter plates using a wash buffer of 50 mM orthophosphoric acid.

In the next assay the target is CHK2 (Homo sapiens, UniProt O96017). The experiment in a line: Kinase screen: CHK2 assay. The procedure:
as §1, §2
CHK2 assay: CHK2 (5-20 mU diluted in 20 mM MOPS pH 7.5, 1 mM EDTA, 0.1% b-mercaptoethanol, 0.01% Brij-35, 5% glycerol, 1 mg/ml BSA) was assayed against CHKtide substrate peptide ([…]) (SEQ ID NO: 12) in a final volume of 25.5 μl containing 8 mM MOPS pH 7.0, 0.2 mM EDTA, 200 μM CHKtide, 10 mM magnesium acetate and 0.02 mM [33P-g-ATP] (50-1000 cpm/pmole) and incubated for 30 min at room temperature Assays were stopped by addition of 5 μl of 0.5 M (3%) orthophosphoric acid and then harvested onto P81 Unifilter plates with a wash buffer of 50 mM orthophosphoric acid.

For the next assay, the target named is Src (Homo sapiens, UniProt P12931). The experiment in a line: Kinase screen: Src assay. The protocol:
as §1, §2
(50-1000 cpm/pmole) and incubated for 30 min at room temperature. Assays were stopped by addition of 5 μl of 0.5 M (3%) orthophosphoric acid and then harvested onto P81 Unifilter plates with a wash buffer of 50 mM orthophosphoric acid.

The next assay addresses CSK (Homo sapiens, UniProt P41240). The assay is described as follows: Kinase screen: CSK assay. The procedure: as §1, §2
(500-1000 cpm/pmole) and incubated for 30 min at room temperature Assays were stopped by addition of 5 μl of 0.5 M (3%) orthophosphoric acid and then harvested onto P81 Unifilter plates with a wash buffer of 50 mM orthophosphoric acid.

The next assay deals with T1, IKKe (Homo sapiens, UniProt Q14164).
T1 construct: DU14231
T1 sequence (Q14164 1-716): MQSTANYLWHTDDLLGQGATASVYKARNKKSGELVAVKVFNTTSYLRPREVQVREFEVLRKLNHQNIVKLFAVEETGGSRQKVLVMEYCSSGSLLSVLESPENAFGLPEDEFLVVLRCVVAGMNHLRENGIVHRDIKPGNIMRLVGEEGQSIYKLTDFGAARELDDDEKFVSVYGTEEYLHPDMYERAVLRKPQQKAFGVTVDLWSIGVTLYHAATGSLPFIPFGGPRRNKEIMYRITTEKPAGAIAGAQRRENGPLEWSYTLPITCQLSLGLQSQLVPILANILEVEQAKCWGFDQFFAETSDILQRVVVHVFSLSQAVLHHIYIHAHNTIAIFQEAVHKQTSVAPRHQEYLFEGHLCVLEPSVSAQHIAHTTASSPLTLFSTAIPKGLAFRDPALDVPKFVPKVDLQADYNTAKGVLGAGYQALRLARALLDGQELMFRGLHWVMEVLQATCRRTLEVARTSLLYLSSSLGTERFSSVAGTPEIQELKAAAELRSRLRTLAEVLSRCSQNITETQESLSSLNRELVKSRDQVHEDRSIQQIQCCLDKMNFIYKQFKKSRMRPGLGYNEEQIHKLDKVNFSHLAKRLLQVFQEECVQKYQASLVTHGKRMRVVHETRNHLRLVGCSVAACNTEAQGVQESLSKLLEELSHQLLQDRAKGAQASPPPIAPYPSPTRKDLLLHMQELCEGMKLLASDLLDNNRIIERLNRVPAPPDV
The assay is described as follows: Kinase screen: IKKe / IKKepsilon (DU14231) assay. The conditions noted are these: 10 micromolar compound; for remaining activity at 10 µM: read-out: mean activity remaining (as a percentage of the original activity), IKKe. The protocol: as §1, §2
IKKe assay: 5-20 mU of IKKe (diluted in 50 mM Tris (pH 7.5), 0.1 mM EGTA, 1 mg/ml BSA) was assayed against MBP in a final volume of 25.5 μl containing 50 mM Tris (pH 7.5), 0.1 mM EGTA, 0.33 mg/ml MBP, 10 mM magnesium acetate and 0.05 mM [33P-g-ATP] (500-1000 cpm/pmole) and incubated for 30 mins at room temperature. Assays were stopped by addition of 5 μl of 0.5M (3%) orthophosphoric acid. Assays were harvested onto P81 Unifilter plates using a wash buffer of 50 mM orthophosphoric acid.
IKKepsilon (DU14231) assay: 5-20 mU of IKKepsilon (DU14231)(diluted in 50 mM Tris (pH 7.5), 0.1 mM EGTA, 1 mg/ml BSA) was assayed against MBP in a final volume of 25.5 μl containing 50 mM Tris (pH 7.5), 0.1 mM EGTA, 0.33 mg/ml MBP, 10 mM magnesium acetate and 0.05 mM [33P-g-ATP] (500-1000 cpm/pmole) and incubated for 30 mins at room temperature. Assays were stopped by addition of 5 μl of 0.5M (3%) orthophosphoric acid. Assays were harvested onto P81 Unifilter plates using a wash buffer of 50 mM orthophosphoric acid.

The mark [1] stands for this setting: 0.5 h, read-out: mean activity remaining (as a percentage of the original activity), CAMK Kb.
The mark [2] stands for this setting: 10 micromolar compound, read-out: mean activity remaining (as a percentage of the original activity), CAMK 1.
Setting [3] is: 10 micromolar compound, read-out: mean activity remaining (as a percentage of the original activity), CHK 2.
Setting [4] is: 10 micromolar compound, read-out: mean activity remaining (as a percentage of the original activity), Src.
Where [5] appears, read: 10 micromolar compound, read-out: mean activity remaining (as a percentage of the original activity), CSK.

Read-outs that look alike come from different tables or passages of the source.

For orientation: remaining activity means the signal under treatment as a percentage of the control signal.

Sequence of CHK2 (O96017 whole entry, species assumed): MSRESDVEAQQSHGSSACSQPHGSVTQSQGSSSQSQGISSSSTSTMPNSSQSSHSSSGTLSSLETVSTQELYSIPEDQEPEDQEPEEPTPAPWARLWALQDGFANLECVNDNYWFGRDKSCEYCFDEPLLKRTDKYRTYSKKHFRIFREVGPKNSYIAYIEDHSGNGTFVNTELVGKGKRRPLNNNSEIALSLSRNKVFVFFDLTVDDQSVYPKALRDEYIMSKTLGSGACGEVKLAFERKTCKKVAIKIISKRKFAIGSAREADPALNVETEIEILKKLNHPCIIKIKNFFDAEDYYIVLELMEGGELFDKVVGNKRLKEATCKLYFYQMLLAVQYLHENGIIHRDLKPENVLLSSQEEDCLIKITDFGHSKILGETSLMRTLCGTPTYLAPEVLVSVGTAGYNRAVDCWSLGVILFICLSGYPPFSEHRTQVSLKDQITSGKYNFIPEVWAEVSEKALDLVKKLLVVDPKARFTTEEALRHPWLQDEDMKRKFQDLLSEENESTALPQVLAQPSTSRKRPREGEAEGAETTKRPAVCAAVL
Sequence of CSK (P41240 whole entry, species assumed): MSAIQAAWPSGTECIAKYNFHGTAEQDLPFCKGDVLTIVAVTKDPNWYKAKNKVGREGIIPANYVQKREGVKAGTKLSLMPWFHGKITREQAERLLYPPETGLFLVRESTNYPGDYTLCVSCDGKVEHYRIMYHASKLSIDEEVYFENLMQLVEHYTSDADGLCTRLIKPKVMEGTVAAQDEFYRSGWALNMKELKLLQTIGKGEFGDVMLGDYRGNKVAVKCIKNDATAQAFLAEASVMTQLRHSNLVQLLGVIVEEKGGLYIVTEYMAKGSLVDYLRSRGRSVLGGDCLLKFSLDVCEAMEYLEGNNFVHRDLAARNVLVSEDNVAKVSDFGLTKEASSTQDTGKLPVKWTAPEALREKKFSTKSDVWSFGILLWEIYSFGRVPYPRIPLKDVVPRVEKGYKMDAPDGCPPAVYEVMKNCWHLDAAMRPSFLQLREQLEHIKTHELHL
Sequence of Src (P12931 whole entry, species assumed): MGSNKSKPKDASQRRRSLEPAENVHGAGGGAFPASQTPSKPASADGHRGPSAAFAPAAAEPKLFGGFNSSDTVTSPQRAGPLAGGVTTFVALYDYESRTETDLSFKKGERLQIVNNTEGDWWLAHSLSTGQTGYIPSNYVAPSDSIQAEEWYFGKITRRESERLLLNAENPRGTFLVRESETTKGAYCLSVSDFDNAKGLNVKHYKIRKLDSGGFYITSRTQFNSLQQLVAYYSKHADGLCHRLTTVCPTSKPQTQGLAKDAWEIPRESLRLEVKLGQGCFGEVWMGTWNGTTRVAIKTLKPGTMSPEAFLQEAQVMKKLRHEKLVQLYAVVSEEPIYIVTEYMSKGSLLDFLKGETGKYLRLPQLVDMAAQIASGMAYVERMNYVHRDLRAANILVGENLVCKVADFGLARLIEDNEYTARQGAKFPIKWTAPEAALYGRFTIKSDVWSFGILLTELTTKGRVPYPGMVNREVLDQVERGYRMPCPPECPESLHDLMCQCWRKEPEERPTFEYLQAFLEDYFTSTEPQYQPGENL

Take `CC(C)c1cnn2c(NCc3ccccc3)cc(NCCCCCCCN)nc12` [BS-181]: the remaining activity at 10 µM on CAMKKβ (CAMKKβ, 10 μM, read-out: Mean Remaining Enzyme Activity (%)) worked out at 67%; at CAMK1 (CAMK1, 10 μM, read-out: Mean Remaining Enzyme Activity (%)), 48%; on CHK2 (CHK2, 10 μM, read-out: Mean Remaining Enzyme Activity (%)), 36%; at Src (Src, 10 μM, read-out: Mean Remaining Enzyme Activity (%)) it was 88%; at CSK (CSK, 10 μM, read-out: Mean Remaining Enzyme Activity (%)) it was 89%.

On to `C=C[C@H](CO)Nc1cc(NCc2ccccc2)n2ncc(C(C)C)c2n1` [ICEC0065], for which the remaining activity at 10 µM at CAMKKβ (setting [1]) is 31%; at CAMK1 (setting [2]), 89%; on CHK2 (setting [3]), 81%; at Src (setting [4]), 112%; at CSK (setting [5]), 77%; on IKKe, 101%.

With `CC(C)c1cnn2c(NCc3ccccc3)cc(N[C@@H](CO)[C@H](O)CO)nc12` [ICEC0318, (3S)-3-(7-(Benzylamino)-3-isopropylpyrazolo[1,5-a]pyrimidin-5-ylamino)butane-1,2,4-triol], the remaining activity at 10 µM on CAMKKβ (setting [1]) amounted to 23%; at CAMK1 (setting [2]) it was 93%; at CHK2 (setting [3]) it was 61%; at Src (setting [4]), 95%; at CSK (setting [5]), 77%; at IKKe it was 94%.

As for `CC(C)c1cnn2c(NCc3ccccc3F)cc(NCCCCCN)nc12` [ICEC-0232], the “mean activity remaining (as a percentage of the original activity), CAMK Kb” value at CAMKKβ (10 micromolar compound) was found to be 18%. Also, the “mean activity remaining (as a percentage of the original activity), CAMK 1” value on CAMK1 (10 micromolar compound) is reported as 29%. Moreover, the “mean activity remaining (as a percentage of the original activity), CHK 2” value on CHK2 (10 micromolar compound) was 15%. Also, the “mean activity remaining (as a percentage of the original activity), Src” value on Src (10 micromolar compound) stood at 96%. Moreover, at CSK (10 micromolar compound), the “mean activity remaining (as a percentage of the original activity), CSK” value is reported as 78%. At IKKe, the “mean activity remaining (as a percentage of the original activity), IKKe” value was found to be 92%.

In the case of `CC[C@H](CO)Nc1cc(NCc2ccccc2)n2ncc(C(C)C)c2n1` [ICEC0067], the remaining activity at 10 µM on CAMKKβ (setting [1]) came to 29%; at CAMK1 (setting [2]), 84%; on CHK2 (setting [3]), 70%; on Src (setting [4]), 90%; at CSK (setting [5]) it was 77%; at IKKe, 103%.
